Measured values taken from patent US20210038559A1, “CANNABINOIDS AND DERIVATIVES FOR PROMOTING IMMUNOGENICITY OF TUMOR AND INFECTED CELLS” (priority 2018, published 2021).

Columns and labels:
[1] = test system: MHC class I expression, metastatic mouse tumor cell line; experiment: Indirect screen for compounds that increase MHC class I expression in a metastatic mouse tumor cell line; type: cell-based
From the text: An assay has been developed to indirectly screen for compounds that increase MHC class I expression in a metastatic mouse tumor cell line (U.S. patent Ser. No. 14/548,726, Jefferies et. al., published 28 May 2015). This assay identified numerous compounds that increased MHC expression. […] In addition, some other cannabinoids induce expression of MHC class I on tumor cells.

[2] = test system: A9 cells, soluble mouse proteins; experiment: Cytokine secretion profile in Cannabigerol treated A9 cells (Proteome Profiler Mouse XL cytokine array); type: cell-based; conditions: 0.055 μM, 48 hours, versus DMSO
Experimental: FIG. 10A-10E show the cytokines and other markers that have increased or decreased expression after treatment with cannabinoids, as compared to interferon gamma. FIG. 10A) Inflammatory markers; FIG. 10B) Cell growth markers; FIG. 10C) Leukocyte migration markers; FIG. 10D) Cell growth and differentiation markers; FIG. 10E) summary of markers.
Cannabigerol and IFN gamma were dissolved in 1% Dimethyl Sulfoxide (DMSO) (Sigma) in media (1% DMSO). 1×10^6 A9 cells were plated onto a 6 well plate in two mL of DMEM media. Twenty-four hours after seeding, cells were cultured at the optimum concentrations of Cannabigerol 0.055 μM or 5.832×10^−6 nM IFN gamma or 1% DMSO vehicle for 48 hours. Relative expression levels of 111 soluble mouse proteins including cytokines, chemokines and growth factors were evaluated using the Proteome Profiler Mouse XL cytokine array kit (R&D System, ARY028) following the manufacturer's instructions. Spot densities on the array film were detected and quantified using Image J analysis software Image J protein analyzer add-on on a scanned version of the film. Quantification of the spot intensity in the arrays was conducted with background subtraction in ImageJ. To determine fold change, the treatment values of IFN gamma microarrays were divided by the DMSO negative control values of the concurring spots. A value of 1 was subtracted from the absolute value of this fold change, to correct the value of DMSO to “0”. Experiment was done in technical replicates.
There also was an increase in VEGFA. Additionally, there was downregulation of IL-10, and IL-11. There also was a decrease in the production of IGFBP1 and angiopoietin-1,

A9 tumors = experiment: A9 tumor mouse model, intraperitoneal treatment; type: in vivo
From the text: FIG. 7A-7B. Number of live lymphocytes observed within the tumor of tumor bearing mice (n=8 for PBS negative control and Cannabigerol treatments, n=6 for TSA positive control). A9 tumors were present in mice for 7 days before intraperitoneal treatment, and mice were sacrificed 4-5 days after treatment. Cannabigerol upregulation of MHC-I expression attracts increased number of lymphocytes which can infiltrate the tumor.
To confirm the in vivo activity of cannabinoid compounds, a representative cannabinoid was tested in a representative animal model. A9 tumor cells were injected subcutaneously into mice at 8-10 weeks of age, and mice were treated 7 days later with either Cannabigerol, TSA, or Vehicle. 1×10^5 A9 cells were injected in a volume of 50 μL of PBS into the right flank of each mouse subcutaneously. Starting at day 7 after injection of the A9 tumor cells, intraperitoneal injections of Cannabigerol (Cayman Chemical Company) at 10 mg/kg, Trichostatin A (TSAX Sigma-Aldrich) at 0.5 mg/kg dissolved in 1% DMSO and PBS, or vehicle (0.2% DMSO, 5% Bovine Serum Albumin (BSA), in PBS) were administered daily to the animals. Cannabigerol was dissolved in 0.2% DMSO, 5% Bovine Serum Albumin, in PBS. Animals were weighed 3 times a week and during tumor measurements, and tumor measurements were begun upon appearance of the tumor, on […] of the trial. Tumor volume was determined using calipers to measure tumor dimensions. Mice were sacrificed at day 10, 11, and 12, as was dictated by subscribed humane endpoints, in which mice experienced tumor ulceration. Half of the tumors were removed from the mouse and immediately placed in digestion media (RPMI Medium 1640 (Gibco) with 10% FBS and Penicillin+Streptomycin (P+S), with the addition of 10% collagenase hyaluronidase, 15% DNAse I (Stemcell)). Tumors were chopped in 1 mL of digestion media and placed at a temperature of 35° C. for 30 minutes, before being passed through a 100 micron cell strainer (Falcon). […]

[3] = 10 mg/kg intraperitoneal daily from day 7, versus Vehicle treated group

SMILES: CCCCCc1cc(O)c(C/C=C(\C)CCC=C(C)C)c(O)c1 [Example 1, 2-[(2E)-3,7-dimethyl-2,6-octadien-1-yl]-5-pentyl-1,3-benzenediol]
- activity in the MHC class I screening assay [1]: significant activity
- FGF-21 expression [2]: upregulated
- IL-10 expression [2]: downregulation
- IL-11 expression [2]: downregulation
- IL-13 expression [2]: upregulated
- VEGFA expression [2]: increase
- production of IGFBP1 [2]: decrease
- production of angiopoietin-1 [2]: decrease
- absolute numbers of lymphocytes in tumors (A9 tumors; 10 mg/kg intraperitoneal daily from day 7, relative to vehicle treated tumors): Much higher
- Mouse weight (A9 tumors; [3]): similar
- tumor volume (A9 tumors; [3]): similar
